Measurements from patent publication US9526717B2, “Composition for treating immune diseases containing daurinol compound as active ingredient” (THE CATHOLIC UNIVERSITY OF KOREA INDUSTRY-ACADEMIC …, priority 2013, dated 2016).

Experiments:
[1] = tested on: mouse model with collagen induced arthritis (CIA); assay: Measurement of IgG, IgG1 and IgG2a in the serum of CIA mice by sandwich ELISA; assay type: in vivo
[2] = tested on: animal model with collagen induced arthritis (CIA); assay: Histological examination of joints of CIA animals; assay type: in vivo, mouse; settings: injected intravenously, three weeks after, H&E, Toluidine blue, Safranin O
[3] = tested on: animal model with collagen induced arthritis (CIA); assay: Expression of inflammatory cytokines in joints of CIA animals (tissue staining); assay type: in vivo, mouse; settings: injected intravenously, three weeks after
[4] = tested on: splenocyte cell line; assay: IL-17 secretion of anti-CD3 treated splenocyte cell line (sandwich ELISA); assay type: cell-based; settings: anti-CD3 antibodies 0.5 μg/mL
Experimental: For this purpose, a splenocyte cell line was treated with anti-CD3 antibodies (0.5 μg/mL) to induce the secretion of IL-17, or treated with LPS (100 ng/mL) to induce the secretion of TNF-α. […] The resultant was reacted in a 96-well plate with monoclonal anti-IL-17 or anti-TNF-α (2 μg/mL) at 4° C. overnight, and upon reaction, the non-specific binding was blocked using a blocking solution (1% BSA/PBST). IL-17 recombinant or TNF-α in a half amount was continuously diluted and used as standards, and the supernatant of cell culture was reacted at room temperature for 2 hours. Then, the biotinylated anti-IL-17 was reacted at room temperature for 2 hours, washed 4 times, and added with ExtraAvidin-alkaline phosphatase conjugate after dilution, and reacted at room temperature for 2 hours. Subsequently, PNPP/DEA solution was added thereto to fix color and absorbance was measured at 405 nm.

[5] = tested on: phospho STAT3 (p705, p′727); assay: Western blot of phospho STAT3 in CD4+T cells; assay type: cell-based; settings: CD4+T cells of normal mouse, daurinol 5 μM, anti-CD3 0.5 μg/mL, 3 days
Experimental: (§1) For the observation of changes in intracellular cell signaling factors treated with daurinol, a western blot analysis was performed. For this purpose, CD4+T cells were isolated from a normal mouse, treated with daurinol (5 μM) in a condition already treated with anti-CD3 antibodies (0.5 μg/mL), cultured for 3 days, and the cells were dissolved and proteins were extracted therefrom. Then, the extracted proteins were subjected to SDS-PAGE electrophoresis, and the proteins were electrically transferred onto a nitrocellulose membrane, subjected to a blocking reaction with 5% skim milk for 1 hour, reacted by attaching primary antibodies to STAT3, STAT3p705, STAT3p727, and phospho m-TOR thereto, reacting again by attaching secondary antibodies to the same, and sensitized onto a Kodak X-ray using enhanced chemilunimoecence (ECL), and thereby the protein expression levels of the genes were analyzed.

[6] = tested on: phospho m-TOR; assay: Western blot of phospho m-TOR in CD4+T cells; assay type: cell-based; settings: CD4+T cells of normal mouse, daurinol 5 μM, anti-CD3 0.5 μg/mL, 3 days
Experimental: as §1

[7] = tested on: animal model with graft versus host disease; assay: Therapeutic effect in animal model with graft versus host disease (GVHD); assay type: in vivo, mouse; settings: GVHD Balb/c recipient mice, daurinol 20 mg/kg 3 times a week, total of 9 times, vs GVHD control group
Text: In order to confirm whether daurinol can be actually applied to the treatment of a different immune disease, the therapeutic effects of daurinol was examined using an animal model with graft versus host disease. First, for the construction of an animal with graft versus host disease, a recipient mouse, Balb/c(H-2k/d), was exposed to total body irradiation (TBI) (800 cGy). Then, hematopoietic stem cells and splenocytes were isolated from the femur and the tibia of the donor mouse and the hematopoietic stem cells (5×10^6 cells) and the splenocytes (1×10^6 cells) were transplanted to a recipient mouse Balb/c(H-2k/d). After the transplantation, daurinol (20 mg/kg of weight) was injected 3 times a week for a total of 9 times, and in particular, daurinol was used after dissolving in a mixed solvent (DMSO:Crernophor EL:DW=1:1:8). The experiment was performed and analyzed for the experimental groups in which each group consisted of five mice.

[8] = tested on: CD4+ T cells; assay: IL-17 expression in allogenic reaction in vitro; assay type: cell-based, mouse; settings: daurinol 0.5, 2, 10 and 20 μM
Experimental: For the confirmation of the effect of the daurinol compound on the inhibition of T cell proliferation and the expression amount of IL-17, the CD4+ T cells (2×10^5 cells) of a normal recipient (Balb/c, responder), and the T cell-removed splenocytes (2×10^5 cells) derived from a recipient (homogenic) or the splenocytes (2×10^5 cells) derived from a donor (C57BL/6, stimulator, allogenic) exposed to irradiation were added to each well of a 96-well round bottom plate, mixed, and cultured in vitro. In particular, the T cell proliferation and the secretion of IL-17 when an allogenic reaction was untreated with daurinol or treated with daurinol at 0.5 μM, 2 μM, 10 μM, and 20 μM, respectively, were observed.

[9] = tested on: VEGF; assay: VEGF expression in the intestinal tissues of IBD mouse model; assay type: in vivo; settings: animal (mouse) model with inflammatory bowel disease
Text: (§2) For the confirmation of the effect of the daurinol compound of the present invention on the treatment of inflammatory bowel disease, the present inventors first constructed an animal model with induced inflammatory bowel disease. For the experimental model, C57BL/6(H-2kb) mice were used. For the construction of an animal model with induced inflammatory bowel disease, the mice were fed with 3.5% dextran sulfate sodium (DSS) and water for a week, thereby preparing an animal model with induced inflammatory bowel disease.
(§3) The present inventors divided the experimental animals into a normal control group, a group of an animal model with induced inflammatory bowel disease, and a group of an animal model with induced inflammatory bowel disease treated with daurinol or a TNF-α inhibitor, and the group treated with daurinol was administered orally and intrarectally with daurinol (20 mg/kg) from the 4th day after the induction with the disease.

[10] = tested on: mouse with induced inflammatory bowel disease (IBD); assay: Antibodies expressed in the sera of IBD animal model; assay type: in vivo; settings: IBD mice treated with daurinol
Text: as §2, §3
Sera were isolated from a mouse with induced inflammatory bowel disease (IBD), and mice treated with daurinol and TNF-α inhibitor, respectively. The levels of IL-17, IFNγ, IL-6, and the like, which are inflammatory cytokines, in the isolated sera were measured by ELISA assay.
Accordingly, since daurinol can reduce not only the expression of the inflammatory cytokines but also the formation of antibodies in an animal model with inflammatory bowel disease, daurinol can inhibit and control the immune response to autoantibodies and the B cell-related inflammation responses.

[11] = tested on: splenocytes of an animal model with lupus; assay: Th17/Treg activity by flow cytometry in splenocytes of animal model with lupus; assay type: cell-based; settings: daurinol 1 μM, anti-CD3 0.5 μg/mL, three days
Experimental: Finally, for the confirmation of the controlling the activity of Th17/Treg cells, the splenocytes of an animal model with lupus were culture for three days after treating with daurinol (1 μM) and anti-CD3 (0.5 μg/mL), and the activity of Th17/Treg cells being controlled by daurinol was evaluated by flow cytometry.

[12] = arthritis animals, daurinol administration

In the case of `COc1cc2c(-c3ccc4c(c3)OCO4)c3c(cc2cc1O)COC3=O` [daurinol], the “expression of IgG in the serum” value ([1]; CIA mouse, three weeks after daurinol injection, 20 mg/kg i.v.) is reported as “effectively reduced”, the “IgG1 in the serum” value [1, 12] is reported as “significant decrease” and the “IgG2a in the serum” value [1, 12] is reported as “significant decrease”. For the same compound, the “degree of destruction of joints and cartilage” value [2] was “not exhibited to be severe”, the “expression level of IL-1beta in joints” value [3] was “significantly reduced” and the “expression level of IL-6 in joints” value [3] was “significantly reduced”. For the same compound, the “expression level of IL-17 in joints” value [3] was “significantly reduced”, the “expression level of TNF-α in joints” value [3] was “significantly reduced” and the “secretion of IL-17 decreased to” value ([4]; 2 μM daurinol) was 50%. The “secretion of IL-17” value ([4]; 20 μM daurinol) was “no secretion was observed”, the “expression of phospho STAT3 (p705, p′727)” value [5] was “significant decrease” and the “expression of phospho m-TOR” value [6] was “significant decrease”. For the same compound, the degree of disease [7] was “improvement in the degree of disease”, the degree of survival [7] was “maintenance of the degree of survival for 30 days” and the “expression of IL-17” value [8] was “inhibited the expression of IL-17”. The “VEGF expression in the intestinal tissues” value [9] was “significantly inhibited the VEGF expression”, the “level of IgG1 antibodies in sera” value [10] was “reduced the levels” and the “level of IgG2 antibodies in sera” value [10] was “reduced the levels”. The “level of IgG3 antibodies in sera” value [10] was “reduced the levels”, the “level of IgG antibodies in sera” value [10] was “reduced the levels” and the “Th17 activity (flow cytometry)” value [11] was “inhibit the Th17 activity”. For the same compound, the “activity of Foxp3+ Treg cells (flow cytometry)” value [11] was “induce the activity of Foxp3+ Treg cells”.
